Source: US9745335B2 (Blirt S.A., priority 2012, dated 2017)

Tests used:
[1] = test system: Candida albicans ATCC 10231; assay: antifungal activity in vitro, serial dilution in RPMI 1640; type: cell-based
In short: (§1)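 Serial dilutions in RPMI 1640 at pH 7.0; yeast inoculated as in the M27-A2 reference method; turbidity measured at λ=531 nm; concentration–A531 relationships drawn for each compound.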

[2] = test system: Candida glabrata DSM 11226; assay: as above; type: cell-based
In short: as §1

[3] = test system: Candida krusei DSM 6128; assay: as above; type: cell-based
In short: as §1

[4] = test system: Candida lusitaniae DSM 70102; assay: as above; type: cell-based
In short: as §1

[5] = test system: Candida tropicalis KKP 334; assay: as above; type: cell-based
In short: as §1

[6] = test system: Saccharomyces cerevisiae ATCC 9763; assay: as above; type: cell-based; details: RPMI 1640, pH 7.0; for Antifungal activity IC50: Saccharomyces cerevisiae ATCC 9763 (first head over MIC and IC50); for Antifungal activity MIC: Saccharomyces cerevisiae ATCC 9763
In short: as §1

[7] = test system: Human erythrocytes; assay: hemotoxicity determination (hemolytic activity); type: cell-based
In short: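 Human erythrocytes (2×10^7/ml in saline) were incubated with serially diluted compound for 30 min at 37 °C and then centrifuged. Released haemoglobin was read at A540 against a 0.1% Triton X-100 full-lysis control. EH50 is the interpolated concentration giving 50% of the control A540.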

[8] = test system: Aspergillus niger LOCK E201; assay: antifungal activity in vitro, broader spectrum; type: cell-based
Method: (§2) For the determination of antifungal activity in vitro we used method of serial dilution in buffered medium RPMI 1640, pH 7.0, in a 96-wells microplates, according to the standard procedure (National Committee for Clinical Laboratory Standards. Reference method for broth dilution antifungal susceptibility testing of yeast, approved standard, 2nd ed. M27-A2 vol. 22 Wayne, Pa., 2002). The optical density of cells suspension was measured using a microplates reader (Victor^3, Perkin-Elmer) at the wavelength λ=531 nm (A531). On the basis of obtained results the diagrams of relation between A531 values and concentration of examined compound were made.
(§3) Obtained results are presented below in tables 2A and 2B.

[9] = test system: Candida albicans SC 5314; assay: antifungal activity in vitro, broader spectrum; type: cell-based
Method: as §2, §3

[10] = test system: Candida arborea KKP 319; assay: antifungal activity in vitro, broader spectrum; type: cell-based
Method: as §2, §3

[11] = test system: Candida dubliniensis CBS 7987; assay: antifungal activity in vitro, broader spectrum; type: cell-based
Method: as §2, §3

[12] = test system: Candida lipolytica KKP 322; assay: antifungal activity in vitro, broader spectrum; type: cell-based
Method: as §2, §3

[13] = test system: Candida parapsilosis DSM 5784; assay: antifungal activity in vitro, broader spectrum; type: cell-based
Method: as §2, §3

[14] = test system: Candida pseudotropicalis KKP 324; assay: antifungal activity in vitro, broader spectrum; type: cell-based
Method: as §2, §3

[15] = test system: Candida quilliermondii DSM 11947; assay: antifungal activity in vitro, broader spectrum; type: cell-based
Method: as §2, §3

[16] = test system: Candida stellatoidea CBS 1905; assay: antifungal activity in vitro, broader spectrum; type: cell-based
Method: as §2, §3

[17] = test system: Trichoderma viride LOCK E159; assay: antifungal activity in vitro, broader spectrum; type: cell-based
Method: as §2, §3

[18] = test system: Candida albicans clinical strain B3; assay: antifungal activity against MDR fungal strains and parents; type: cell-based; details: C. albicans B3, fluconazole sensitive, parent strain for B4
Method: as §2

[19] = test system: Candida albicans clinical strain B4 (CaMdr1p); assay: as above; type: cell-based; details: C. albicans B4 (CaMdr1p), fluconazole-resistant
Method: as §2

[20] = test system: Candida albicans clinical strain F2; assay: as above; type: cell-based; details: C. albicans F2, fluconazole sensitive, parent strain for F5
Method: as §2

[21] = test system: Candida albicans clinical strain F5 (CaMdr1p); assay: as above; type: cell-based; details: C. albicans F5 (CaMdr1p), fluconazole-resistant
Method: as §2

[22] = test system: Candida albicans clinical strain Gu4; assay: as above; type: cell-based; details: C. albicans Gu4, fluconazole sensitive, parent strain for Gu5
Method: as §2

[23] = test system: Candida albicans clinical strain Gu5 (CaCdr1p, CaCdr2p); assay: as above; type: cell-based; details: C. albicans Gu5 (CaCdr1p, CaCdr2p), fluconazole-resistant
Method: as §2

[24] = test system: Candida albicans strain 5674 (CaCdr1p, CaCdr2p); assay: as above; type: cell-based; details: C. albicans 5674 (CaCdr1p, CaCdr2p)
Method: as §2

[25] = test system: Candida albicans strain STY31; assay: as above; type: cell-based; details: C. albicans STY31, 5674 derivative, deletion of CDR1 and CDR2
Method: as §2

[26] = test system: Candida albicans strain STY7 (CaCdr1p); assay: as above; type: cell-based; details: C. albicans STY7 (CaCdr1p), 5674 derivative, deletion of CDR2
Method: as §2

[27] = test system: CCRF-CEM cells; assay: cytotoxic activity against mammalian cells in tissue culture (MTT); type: cell-based, human
Method: (§4) All media contained 100 μg/ml of penicillin G and streptomycin. 24-wells microplates containing appropriate medium were inoculated with the cells in amount of 1.2×10^4 cells/well and allowed to stand overnight. Next, tested compounds as solution in dimethylsulfoxide (DMSO) were added in volume of 10 μl (serial 2× dilutions). To control well 10 μl of DMSO was added. Microplates with cell suspensions were incubated for 120 h at temperature 37° C. at atmosphere of 95%/5% CO2. After incubation, to all wells 200 μl of solution of 3-(4,5-dimethyltiazole-2-yl)-2,5-diphenylotetrazole bromide (MTT) in PBS (4 mg/ml) was added and plates were further incubated for 4 h at 37° C. Next, to dissolve crystals of formazane 1 ml of DMSO was added and absorption of solutions was measured at the wavelength λ=540 nm (A540), using a microplates reader (Victor^3, Perkin-Wallac). […] From these graphs IC50 values were read, that is concentration of tested compound in the presence at which A540 value is half of A540 value measured in the control sample.

[28] = test system: HepG2 cells; assay: as above; type: cell-based, human
Method: as §4

[29] = test system: LLC-PK1 cells; assay: as above; type: cell-based, pig
Method: as §4

Compound: C[C@@H]1[C@H](O)[C@@H](C)/C=C/C=C/C=C/C=C/C=C/C=C/C=C/[C@H](O[C@@H]2O[C@H](C)[C@@H](O)[C@H](NC(=O)[C@H](N)Cc3cccnc3)[C@@H]2O)C[C@@H]2O[C@](O)(C[C@@H](O)C[C@@H](O)[C@H](O)CC[C@@H](O)C[C@@H](O)CC(=O)O[C@H]1C)C[C@H](O)[C@H]2C(=O)O [Compound A36, N-D-β-(pyridin-3-yl)alanylamphotericin B]
- Antifungal activity MIC [1]: 2 µg/mL
- Antifungal activity MIC [2]: 4 µg/mL
- Antifungal activity MIC [3]: 4 µg/mL
- Antifungal activity MIC [4]: 2 µg/mL
- Antifungal activity MIC [5]: 2 µg/mL
- Antifungal activity IC50 [6]: 0.53 µg/mL
- Antifungal activity MIC [6]: 1 µg/mL
- Hemotoxi EH50 [7]: >100 µg/mL
- Antifungal activity MIC [8]: 0.5 µg/mL
- Antifungal activity MIC [9]: 1 µg/mL
- Antifungal activity MIC [10]: 4 µg/mL
- Antifungal activity MIC [11]: 1 µg/mL
- Antifungal activity MIC [12]: 2 µg/mL
- Antifungal activity MIC [13]: 2 µg/mL
- Antifungal activity MIC [14]: 1 µg/mL
- Antifungal activity MIC [15]: 1 µg/mL
- Antifungal activity MIC [16]: 2 µg/mL
- Antifungal activity MIC [17]: 4 µg/mL
- Antifungal activity MIC [18]: 0.5 µg/mL
- Antifungal activity MIC [19]: 4 µg/mL
- Antifungal activity MIC [20]: 4 µg/mL
- Antifungal activity MIC [21]: 4 µg/mL
- Antifungal activity MIC [22]: 1 µg/mL
- Antifungal activity MIC [23]: 4 µg/mL
- Antifungal activity MIC [24]: 0.5 µg/mL
- Antifungal activity MIC [25]: 0.25 µg/mL
- Antifungal activity MIC [26]: 0.5 µg/mL
- IC50 (cytotoxic activity) [27]: >100 µg/mL
- IC50 (cytotoxic activity) [28]: >100 µg/mL
- IC50 (cytotoxic activity) [29]: >100 µg/mL

Compound: C[C@@H]1[C@H](O)[C@@H](C)/C=C/C=C/C=C/C=C/C=C/C=C/C=C/[C@H](O[C@@H]2O[C@H](C)[C@@H](O)[C@H](NC(=O)[C@H](N)c3ccccc3)[C@@H]2O)C[C@@H]2O[C@](O)(C[C@@H](O)C[C@@H](O)[C@H](O)CC[C@@H](O)C[C@@H](O)CC(=O)O[C@H]1C)C[C@H](O)[C@H]2C(=O)O [Compound A41, N-D-phenylglycylamphotericin B]
- Antifungal activity MIC [1]: 2 µg/mL
- Antifungal activity MIC [2]: 4 µg/mL
- Antifungal activity MIC [3]: 4 µg/mL
- Antifungal activity MIC [4]: 2 µg/mL
- Antifungal activity MIC [5]: 4 µg/mL
- Antifungal activity IC50 [6]: 1.46 µg/mL
- Antifungal activity MIC [6]: 4 µg/mL
- Hemotoxi EH50 [7]: >100 µg/mL
- Antifungal activity MIC [8]: 2 µg/mL
- Antifungal activity MIC [9]: 1 µg/mL
- Antifungal activity MIC [10]: 4 µg/mL
- Antifungal activity MIC [11]: 1 µg/mL
- Antifungal activity MIC [12]: 2 µg/mL
- Antifungal activity MIC [13]: 2 µg/mL
- Antifungal activity MIC [14]: 2 µg/mL
- Antifungal activity MIC [15]: 1 µg/mL
- Antifungal activity MIC [16]: 2 µg/mL
- Antifungal activity MIC [17]: 4 µg/mL
- Antifungal activity MIC [18]: 1 µg/mL
- Antifungal activity MIC [19]: 1 µg/mL
- Antifungal activity MIC [20]: 2 µg/mL
- Antifungal activity MIC [21]: 4 µg/mL
- Antifungal activity MIC [22]: 1 µg/mL
- Antifungal activity MIC [23]: 1 µg/mL
- Antifungal activity MIC [24]: 1 µg/mL
- Antifungal activity MIC [25]: 1 µg/mL
- Antifungal activity MIC [26]: 1 µg/mL
- IC50 (cytotoxic activity) [27]: >100 µg/mL
- IC50 (cytotoxic activity) [28]: >100 µg/mL
- IC50 (cytotoxic activity) [29]: >100 µg/mL

Compound: N-(4-N,N-diethylaminobenzyl)amphotericin B [Compound A19]
- Antifungal activity MIC [1]: 1 µg/mL
- Antifungal activity MIC [2]: 2 µg/mL
- Antifungal activity MIC [3]: 2 µg/mL
- Antifungal activity MIC [4]: 1 µg/mL
- Antifungal activity MIC [5]: 1 µg/mL
- Antifungal activity IC50 [6]: 0.53 µg/mL
- Antifungal activity MIC [6]: 1 µg/mL
- Hemotoxi EH50 [7]: >100 µg/mL
- Antifungal activity MIC [8]: 1 µg/mL
- Antifungal activity MIC [9]: 0.5 µg/mL
- Antifungal activity MIC [10]: 2 µg/mL
- Antifungal activity MIC [11]: 0.5 µg/mL
- Antifungal activity MIC [12]: 2 µg/mL
- Antifungal activity MIC [13]: 2 µg/mL
- Antifungal activity MIC [14]: 0.5 µg/mL
- Antifungal activity MIC [15]: 2 µg/mL
- Antifungal activity MIC [16]: 1 µg/mL
- Antifungal activity MIC [17]: 4 µg/mL
- Antifungal activity MIC [18]: 1 µg/mL
- Antifungal activity MIC [19]: 2 µg/mL
- Antifungal activity MIC [20]: 2 µg/mL
- Antifungal activity MIC [21]: 2 µg/mL
- Antifungal activity MIC [22]: 1 µg/mL
- Antifungal activity MIC [23]: 1 µg/mL
- Antifungal activity MIC [24]: 1 µg/mL
- Antifungal activity MIC [25]: 1 µg/mL
- Antifungal activity MIC [26]: 1 µg/mL
- IC50 (cytotoxic activity) [27]: >100 µg/mL
- IC50 (cytotoxic activity) [28]: >100 µg/mL
- IC50 (cytotoxic activity) [29]: >100 µg/mL
